For four compounds, MBC and MIC results are on record in patent publication US9353072B2, “Antimicrobial substituted thiazoles and methods of use” (Purdue Research Foundation, priority 2012, dated 2016).

Each structure is given as a SMILES string. Converted amounts (≈) assume the structure as drawn. Where two headings read alike, the source gives them in different places.

The test system of assay [1] is MRSA ATCC 700699 (NRS1, VISA). The assay can be described thus: MIC/MBC broth microdilution, NRS1 (ATCC 700699). The class given is cell-based. Conditions: Staphylococcus aureus. Here is the method: (§1) Determination of minimum inhibitory concentration (MIC). The MICs of the lead thiazole compound (compound 1a) and nine derivatives tested against all 18 MRSA strains were determined, in triplicate samples, using the broth microdilution method in accordance with the recommendations contained in the CLSI guidelines.
For orientation: Broth dilution looks for growth in wells or tubes with falling amounts of substance.

Assay [2] deals with MRSA USA400 (NRS123). The assay can be described thus: MIC/MBC broth microdilution, NRS123 (USA400). The class given is cell-based. The note with it: Staphylococcus aureus, Table 8, NRS123; for MBC: read-out: MBC; for MIC: read-out: MIC. Here is the method: as §1
Assay [3] relates to VRSA (VRS10). Put plainly: MIC/MBC broth microdilution, VRSA (VRS10). The class given is cell-based, Staphylococcus aureus. Conditions: Staphylococcus aureus; for MBC: read-out: Minimum Bactericidal Concentration; for MIC: read-out: Minimum Inhibitory Concentration. Here is the method: as §1
Assay [4] has as its system VISA LIM 3 (NRS37). The assay can be described thus: MIC/MBC broth microdilution, NRS37 (VISA LIM 3). The class given is cell-based. The note with it: Staphylococcus aureus, Table 8, NRS37 (VISA); for MBC: read-out: MBC; for MIC: read-out: MIC. The procedure:
as §1

Assay [5] concerns NRS107. Put plainly: MIC/MBC broth microdilution, NRS107. The class given is cell-based. The note with it: Staphylococcus aureus; for MBC: Table 8, read-out: MBC; for MIC: Table 8, read-out: MIC. The procedure:
as §1

The subject of assay [6] is NRS194. The assay can be described thus: MIC/MBC broth microdilution, NRS194. The class given is cell-based. Conditions: Staphylococcus aureus; for MBC: Table 8, read-out: MBC; for MIC: Table 8, read-out: MIC. Here is the method: as §1
For assay [7], the system named is MRSA USA500 (NRS385). Put plainly: MIC/MBC broth microdilution, NRS385 (USA500). The class given is cell-based. Conditions: Staphylococcus aureus, Table 8, NRS385; for MBC: read-out: MBC; for MIC: read-out: MIC. The procedure: as §1
Assay [8] relates to MRSA ATCC 43300. Put plainly: MIC/MBC broth microdilution, MRSA ATCC 43300. The class given is cell-based, Staphylococcus aureus. Conditions: Staphylococcus aureus. The procedure: as §1
The test system of assay [9] is VISA HIP07256 (NRS19). Put plainly: MIC/MBC broth microdilution, NRS19 (VISA HIP07256). The class given is cell-based. The note with it: Staphylococcus aureus, Table 8, NRS19 (VISA); for MBC: read-out: MBC; for MIC: read-out: MIC. The procedure: as §1
For assay [10], the system named is NRS119. The assay can be described thus: MIC/MBC broth microdilution, NRS119. Conditions: Staphylococcus aureus. The class given is cell-based. The procedure:
as §1

Assay [11] deals with MRSA NRS384 (USA300). Put plainly: MIC/MBC broth microdilution, NRS384 (USA300). The class given is cell-based. Conditions: Staphylococcus aureus; for MBC: read-out: MBC. The procedure:
as §1

[12] abbreviates: Table 8, NRS1 (VISA), read-out: MBC.
Setting [13] is: Table 8, NRS1 (VISA), triplicates, 20 hours, read-out: MIC.
[14] abbreviates: Table 8, ATCC 43300, read-out: MBC.
Setting [15] is: Table 8, ATCC 43300, read-out: MIC.
[16] abbreviates: read-out: Minimum Bactericidal Concentration.
[17] abbreviates: read-out: Minimum Inhibitory Concentration.

For `C/C(=N/NC(=N)N)c1sc(-c2ccc(-c3ccc(C(F)(F)F)cc3)cc2)nc1C` [Compound M13], the MBC in [1] (Table 7, VISA (NRS1), read-out: Minimum Bactericidal Concentration) came to 8 µM (≈ 3.34 µg/mL); in assay [1] (setting [12]) it was 8 µM (≈ 3.34 µg/mL); in assay [2], 32 µM (≈ 13.4 µg/mL); in assay [3] (Table 7, VRSA (VRS10)) it was 16 µM (≈ 6.68 µg/mL); in assay [4], 8 µM (≈ 3.34 µg/mL); in [5], 16 µM (≈ 6.68 µg/mL). Also, the MBC in [6] was found to be 32 µM (≈ 13.4 µg/mL); in assay [7], 8 µM (≈ 3.34 µg/mL); in assay [8] (Table 6, MRSA ATCC 43300, plating on TSA, 20 hour incubation, read-out: MBC), 16 µM (≈ 6.68 µg/mL); in [8] (Table 7, MRSA (ATCC 43300), read-out: Minimum Bactericidal Concentration), 16 µM (≈ 6.68 µg/mL); in [8] (setting [14]) it was 8 µM (≈ 3.34 µg/mL); in assay [9] it was 8 µM (≈ 3.34 µg/mL). The MBC in assay [10] (NRS 119 / VISA, Table 7, VISA (NRS119), read-out: Minimum Bactericidal Concentration) is 32 µM (≈ 13.4 µg/mL); in assay [10] (Table 8, NRS119, read-out: MBC), 16 µM (≈ 6.68 µg/mL); in assay [11] (Table 8, NRS384), 16 µM (≈ 6.68 µg/mL). The MIC is 4 µM (≈ 1.67 µg/mL) in assay [1] (Table 7, VISA (NRS1), read-out: Minimum Inhibitory Concentration); 8 µM (≈ 3.34 µg/mL) in assay [1] (setting [13]); 16 µM (≈ 6.68 µg/mL) in [2]; 4 µM (≈ 1.67 µg/mL) in [3] (Table 7, VRSA (VRS10)); 8 µM (≈ 3.34 µg/mL) in [4]; 8 µM (≈ 3.34 µg/mL) in [5]. In addition, the MIC in assay [6] is 16 µM (≈ 6.68 µg/mL); in [7] it was 8 µM (≈ 3.34 µg/mL); in assay [8] (Table 6, MRSA ATCC 43300, 128 μM down to 1.0 μM, 20 hours, read-out: MIC), 8 µM (≈ 3.34 µg/mL); in [8] (Table 7, MRSA (ATCC 43300), read-out: Minimum Inhibitory Concentration) it was 8 µM (≈ 3.34 µg/mL); in assay [8] (setting [15]) it was 8 µM (≈ 3.34 µg/mL); in assay [9], 8 µM (≈ 3.34 µg/mL). Further, the MIC amounted to 16 µM (≈ 6.68 µg/mL) in assay [10] (NRS 119 / VISA, Table 7, VISA (NRS119), read-out: Minimum Inhibitory Concentration); 16 µM (≈ 6.68 µg/mL) in [10] (Table 8, NRS119, read-out: MIC); 16 µM (≈ 6.68 µg/mL) in assay [11] (Table 8, NRS384, read-out: MIC).

Consider `CCCCCCCC#Cc1ccc(-c2nc(C)c(/C(C)=N/NC(=N)N)s2)cc1` [Compound M17, (E)-2-(1-(4-methyl-2-(4-(non-1-yn-1-yl)phenyl)thiazol-5-yl)ethylidene) hydrazinecarboximidamide], for which the MBC was 32 µM (≈ 12.7 µg/mL) in assay [1] (setting [16]); 64 µM (≈ 25.3 µg/mL) in [3] (VRSA); 64 µM (≈ 25.3 µg/mL) in [8] (setting [16]); 64 µM (≈ 25.3 µg/mL) in assay [10] (NRS 119 / VISA, read-out: Minimum Bactericidal Concentration). Besides, the MIC in assay [1] (setting [17]) amounted to 16 µM (≈ 6.33 µg/mL); in [3] (VRSA), 32 µM (≈ 12.7 µg/mL); in assay [8] (20 h), 32 µM (≈ 12.7 µg/mL); in assay [8] (setting [17]), 32 µM (≈ 12.7 µg/mL); in assay [10] (NRS 119 / VISA, read-out: Minimum Inhibitory Concentration) it was 32 µM (≈ 12.7 µg/mL).

Consider `CCCCC#Cc1ccc(-c2nc(C)c(/C(C)=N/NC(=N)N)s2)cc1` [Compound R1, (E)-2-(1-(2-(4-(hex-1-yn-1-yl)phenyl)-4-methylthiazol-5-yl)ethylidene)hydrazinecarboximidamide], for which the MBC was 2 µM (≈ 0.707 µg/mL) in assay [1] (setting [12]); 4 µM (≈ 1.41 µg/mL) in assay [2]; 4 µM (≈ 1.41 µg/mL) in [4]; 4 µM (≈ 1.41 µg/mL) in assay [5]; 4 µM (≈ 1.41 µg/mL) in assay [6]; 4 µM (≈ 1.41 µg/mL) in assay [7]. Besides, the MBC in [8] (setting [14]) was determined as 4 µM (≈ 1.41 µg/mL); in assay [9], 4 µM (≈ 1.41 µg/mL); in [10] (Table 8, NRS119, read-out: MBC), 4 µM (≈ 1.41 µg/mL); in [11] (Table 8, NRS384) it was 4 µM (≈ 1.41 µg/mL). Besides, the MIC in assay [1] (setting [13]) was 2 µM (≈ 0.707 µg/mL); in assay [2], 4 µM (≈ 1.41 µg/mL); in assay [4], 4 µM (≈ 1.41 µg/mL); in [5], 4 µM (≈ 1.41 µg/mL); in [6], 4 µM (≈ 1.41 µg/mL); in assay [7], 4 µM (≈ 1.41 µg/mL). Further, the MIC in [8] (Table 4, MRSA ATCC 43300, 64 μM down to 0.5 μM, 37° C., 19 hours, read-out: Minimum Inhibitory Concentration) is 4 µM (≈ 1.41 µg/mL); in assay [8] (setting [15]) it was 4 µM (≈ 1.41 µg/mL); in [9] it was 4 µM (≈ 1.41 µg/mL); in assay [10] (Table 8, NRS119, read-out: MIC), 4 µM (≈ 1.41 µg/mL); in assay [11] (Table 8, NRS384, read-out: MIC) it was 4 µM (≈ 1.41 µg/mL).

As for `CCCCc1ccc(-c2nc(C)c(/C(N)=N\O)s2)cc1` [Compound R7, (E)-2-(4-butylphenyl)-N′-hydroxy-4-methylthiazole-5-carboximidamide], the MIC in assay [1] (setting [13]), in assay [2], in [4], in assay [5], in [6] and in [7] was over 128 µM each time. Moreover, the MIC in assay [8] (setting [15]) was over 128 µM; in assay [9], over 128 µM; in assay [10] (Table 8, NRS119, read-out: MIC) it was over 128 µM; in assay [11] (Table 5, MRSA NRS384 (USA300), 128 μM down to 1.0 μM, 37° C., 19 hours, read-out: Minimum Inhibitory Concentration), over 128 µM; in assay [11] (Table 8, NRS384, read-out: MIC) it was over 128 µM.
